Measurements: patent publication US20230157952A1, “METHOD FOR IMPROVING THE STABILITY OF A PHARMACEUTICAL COMPOSITION COMPRISING A HIGH PENETRATION DRUG, AND THE PHARMACEUTICAL COMPOSITION OBTAINED THEREFROM” (Techfields Inc., priority 2020, published 2023)
One block for each molecule: values may come before it.

What was measured:
[1] = Effect of temperature (and pH) on the stability of the solution (purity); type: physicochemical; conditions: for Stability of the solution at a temperature higher than 40° C. and a pH lower than 3 or greater than 6: 7% solution in water
[2] = Effect of concentration on the stability of the solution (purity over time); conditions: in water at 25° C.

SMILES: CCN(CC)CCOC(=O)C(C)c1ccc(CC(C)C)cc1.Cl (racemic)
Purity (%) at day 21 (60° C.) ([1]; pH 1.02, 7% solution in water): 0%
Purity(%) at day 21 (5° C.) ([1]; pH 1.02, 7% solution in water): 93.7 ± 0.3%
Purity(%) at day 21 (25° C.) ([1]; pH 1.02, 7% solution in water): 73.0 ± 0.4%
Purity(%) at day 21 (40° C.) ([1]; pH 1.02, 7% solution in water): 18.6 ± 0.4%
Purity (%) at day 21 (60° C.) ([1]; pH 2.09, 7% solution in water): 0%
Purity(%) at day 21 (5° C.) ([1]; pH 2.09, 7% solution in water): 97.6 ± 0.4%
Purity(%) at day 21 (25° C.) ([1]; pH 2.09, 7% solution in water): 86.1 ± 0.3%
Purity(%) at day 21 (40° C.) ([1]; pH 2.09, 7% solution in water): 30.4 ± 0.3%
Purity (%) at day 21 (60° C.) ([1]; pH 3.00, 7% solution in water): 8.8 ± 0.3%
Purity(%) at day 21 (25° C.) ([1]; pH 3.00, 7% solution in water): 96.5 ± 0.4%
Purity(%) at day 21 (40° C.) ([1]; pH 3.00, 7% solution in water): 56.3 ± 0.4%
Purity (%) at day 21 (60° C.) ([1]; pH 3.68, 7% solution in water): 16.4 ± 0.4%
Purity(%) at day 21 (40° C.) ([1]; pH 3.68, 7% solution in water): 64.3 ± 0.4%
Purity (%) at day 21 (60° C.) ([1]; pH 4.07, 7% solution in water): 22.6 ± 0.4%
Purity(%) at day 21 (40° C.) ([1]; pH 4.07, 7% solution in water): 72.7 ± 0.3%
Purity (%) at day 21 (60° C.) ([1]; pH 4.35, 7% solution in water): 18.8 ± 0.2%
Purity(%) at day 21 (40° C.) ([1]; pH 4.35, 7% solution in water): 72.6 ± 0.3%
Purity (%) at day 21 (60° C.) ([1]; pH 4.67, 7% solution in water): 10.3 ± 0.3%
Purity(%) at day 21 (40° C.) ([1]; pH 4.67, 7% solution in water): 58.2 ± 0.4%
Purity (%) at day 21 (60° C.) ([1]; pH 4.95, 7% solution in water): 3.9 ± 0.3%
Purity(%) at day 21 (5° C.) ([1]; pH 4.95, 7% solution in water): 97.5 ± 0.4%
Purity(%) at day 21 (25° C.) ([1]; pH 4.95, 7% solution in water): 95.4 ± 0.4%
Purity(%) at day 21 (40° C.) ([1]; pH 4.95, 7% solution in water): 50.2 ± 0.4%
Purity (%) at day 21 (60° C.) ([1]; pH 5.98, 7% solution in water): 0%
Purity(%) at day 21 (5° C.) ([1]; pH 5.98, 7% solution in water): 96.1 ± 0.3%
Purity(%) at day 21 (25° C.) ([1]; pH 5.98, 7% solution in water): 90.7 ± 0.3%
Purity(%) at day 21 (40° C.) ([1]; pH 5.98, 7% solution in water): 29.9 ± 0.2%
Purity (%) at day 21 (60° C.) ([1]; pH 6.98, 7% solution in water): 0%
Purity(%) at day 21 (5° C.) ([1]; pH 6.98, 7% solution in water): 90.7 ± 0.4%
Purity(%) at day 21 (25° C.) ([1]; pH 6.98, 7% solution in water): 78.6 ± 0.4%
Purity(%) at day 21 (40° C.) ([1]; pH 6.98, 7% solution in water): 19.7 ± 0.4%
Purity (%) at day 21 (60° C.) ([1]; pH 8.01, 7% solution in water): 0%
Purity(%) at day 21 (5° C.) ([1]; pH 8.01, 7% solution in water): 81.6 ± 0.5%
Purity(%) at day 21 (25° C.) ([1]; pH 8.01, 7% solution in water): 52.5 ± 0.5%
Purity(%) at day 21 (40° C.) ([1]; pH 8.01, 7% solution in water): 0%

SMILES: CCN(CC)CCOC(=O)Cc1c(C)n(C(=O)c2ccc(Cl)cc2)c2ccc(OC)cc12.Cl [2-(diethylamino)ethyl 1-(4-chlorobenzoyl)-5-methoxy-2-methyl-1H-indole-3-acetate•HCl]
Stability of the solution at a temperature higher than 40° C. and a pH lower than 3 or greater than 6 [1]: not stable
Purity at Day 3 ([2]; 0.01 wt %): 84.2%
Purity at Day 7 ([2]; 0.01 wt %): 72.9%
Purity at Day 14 ([2]; 0.01 wt %): 61.3%
Purity at Day 21 ([2]; 0.01 wt %): 53.4%
Purity at Day 28 ([2]; 0.01 wt %): 45.5%
Purity at hr 0 ([2]; 0.01 wt %): 98.0%
Purity at Day 3 ([2]; 0.1 wt %): 96.3%
Purity at Day 7 ([2]; 0.1 wt %): 93.6%
Purity at Day 14 ([2]; 0.1 wt %): 88.9%
Purity at Day 21 ([2]; 0.1 wt %): 84.7%
Purity at Day 28 ([2]; 0.1 wt %): 78.7%
Purity at hr 0 ([2]; 0.1 wt %): 98.2%
Purity at Day 3 ([2]; 1 wt %): 97.2%
Purity at Day 7 ([2]; 1 wt %): 96.1%
Purity at Day 14 ([2]; 1 wt %): 94.0%
Purity at Day 21 ([2]; 1 wt %): 92.4%
Purity at Day 28 ([2]; 1 wt %): 91.2%
Purity at hr 0 ([2]; 1 wt %): 98.3%
Purity at Day 3 ([2]; 3 wt %): 97.8%
Purity at Day 7 ([2]; 3 wt %): 97.2%
Purity at Day 14 ([2]; 3 wt %): 96.0%
Purity at Day 21 ([2]; 3 wt %): 95.0%
Purity at Day 28 ([2]; 3 wt %): 94.1%
Purity at hr 0 ([2]; 3 wt %): 98.4%
Purity at Day 3 ([2]; 5 wt %): 98.3%
Purity at Day 7 ([2]; 5 wt %): 98.0%
Purity at Day 14 ([2]; 5 wt %): 97.7%
Purity at Day 21 ([2]; 5 wt %): 97.1%
Purity at Day 28 ([2]; 5 wt %): 96.5%
Purity at hr 0 ([2]; 5 wt %): 98.5%
Purity at Day 3 ([2]; 7 wt %): 98.4%
Purity at Day 7 ([2]; 7 wt %): 98.2%
Purity at Day 14 ([2]; 7 wt %): 98.0%
Purity at Day 21 ([2]; 7 wt %): 97.7%
Purity at Day 28 ([2]; 7 wt %): 97.4%
Purity at hr 0 ([2]; 7 wt %): 98.5%
Purity at Day 3 ([2]; 8 wt %): 98.4%
Purity at Day 7 ([2]; 8 wt %): 98.3%
Purity at Day 14 ([2]; 8 wt %): 98.0%
Purity at Day 21 ([2]; 8 wt %): 97.8%
Purity at Day 28 ([2]; 8 wt %): 97.4%
Purity at hr 0 ([2]; 8 wt %): 98.6%
Purity at Day 3 ([2]; 10 wt %): 98.4%
Purity at Day 7 ([2]; 10 wt %): 98.3%
Purity at Day 14 ([2]; 10 wt %): 98.2%
Purity at Day 21 ([2]; 10 wt %): 98.0%
Purity at Day 28 ([2]; 10 wt %): 97.6%
Purity at hr 0 ([2]; 10 wt %): 98.5%
Purity at Day 3 ([2]; 15 wt %): 98.4%
Purity at Day 7 ([2]; 15 wt %): 98.2%
Purity at Day 14 ([2]; 15 wt %): 98.1%
Purity at Day 21 ([2]; 15 wt %): 98.0%
Purity at Day 28 ([2]; 15 wt %): 97.5%
Purity at hr 0 ([2]; 15 wt %): 98.5%
Purity at Day 3 ([2]; 20 wt %): 98.4%
Purity at Day 7 ([2]; 20 wt %): 98.5%
Purity at Day 14 ([2]; 20 wt %): 98.2%
Purity at Day 21 ([2]; 20 wt %): 98.1%
Purity at Day 28 ([2]; 20 wt %): 97.7%
Purity at hr 0 ([2]; 20 wt %): 98.6%
Purity at Day 3 ([2]; 30 wt %): 98.5%
Purity at Day 7 ([2]; 30 wt %): 98.3%
Purity at Day 14 ([2]; 30 wt %): 98.0%
Purity at Day 21 ([2]; 30 wt %): 98.1%
Purity at Day 28 ([2]; 30 wt %): 97.5%
Purity at hr 0 ([2]; 30 wt %): 98.5%
Purity at Day 3 ([2]; 50 wt %): 98.5%
Purity at Day 7 ([2]; 50 wt %): 98.4%
Purity at Day 14 ([2]; 50 wt %): 98.1%
Purity at Day 21 ([2]; 50 wt %): 97.9%
Purity at Day 28 ([2]; 50 wt %): 97.6%
Purity at hr 0 ([2]; 50 wt %): 98.6%
Stability when the concentration is 0.1% or lower [2]: not stable

SMILES: CCN(CC)CCOC(=O)COC(=O)Cc1c(C)n(C(=O)c2ccc(Cl)cc2)c2ccc(OC)cc12.Cl [2-(diethylamino)ethyl 1-(4-chlorobenzoyl-5-methoxy-2-methyl-1H-indole-3-acetoxyacetate.HCl]
Stability of the solution at a temperature higher than 40° C. and a pH lower than 3 or greater than 6 [1]: not stable

Continued, values first:

Stability of the solution at a temperature higher than 40° C. and a pH lower than 3 or greater than 6 [1]: not stable
SMILES: CCN(CC)CCOC(=O)Cc1ccccc1Oc1ccc(Cl)cc1Cl.Cl [2-(diethylamino)ethyl 2-(2,4-dichlorophenoxy)benzeneacetate.HCl]

Stability of the solution at a temperature higher than 40° C. and a pH lower than 3 or greater than 6 [1]: not stable
SMILES: CCN(CC)CCOC(=O)COc1nn(Cc2ccccc2)c2ccccc12.Cl [2-(diethylamino)ethyl [(1-benzyl-1H-indazol-3-yl)oxy]acetate•HCl]
